Reference: patent US11752155B2, “Treatment of autism spectrum disorders, obsessive-compulsive disorder and anxiety disorders” (Rugen Holdings (Cayman) Limited, priority 2016, dated 2023)
Where a name gives a salt, the structure may show the parent alone. Read-outs that look alike come from different tables or passages of the source.

Assays:
[1] = system: wild type mice (male NMRI); assay: Marble Burying Test in wild type mice; format: in vivo, mouse; details: Mus musculus, ip, read-out: Percent Change in marbles buried relative to vehicle
Protocol: Animals. Male NMRI mice (20-30 g body weight) were obtained from Janvier Labs (Le Genest-Saint Isle, France) and allowed to acclimate to the animal facility for at least 5 days. Twelve mice were studied per treatment group.
Compound formulation. The test compounds were prepared in a vehicle of 0.5% DMSO and 4% HP-β-CD, and administered orally (PO) or IP. The test compounds or vehicle were administered 20 minutes before the behavioral test described below. Clobazam (8 mg/kg IP), administered 30 minutes before the test, was used as the positive reference compound.
Clobazam was dispersed in 0.2% hydroxypropylmethylcellulose (HPMC) in physiological saline. Dosing volume was 10 mL/kg.
Testing procedure. The Marble Burying Test was conducted as previously described by Broekkamp et al. (Eur. J. Pharmacol. 1986, 126:223-229). Mice exposed to small novel objects (marbles) will bury them in the sawdust floor covering. Anxiolytics decrease the number of marbles buried at non-sedating doses. Mice were individually placed in transparent plastic cages (33×21×18 cm) with 5 cm of sawdust on the floor and 25 marbles grouped in the center of the cage. The cage was covered with an inverted plastic cage. Each test cage, together with the marbles, was impregnated with mouse odor before-hand by leaving 10 mice in the cage for 15 minutes. These mice then played no further role in the experiment. The number of marbles covered by sawdust (⅔ or more) was counted at the end of the 30-minute test. The test was performed blind (compounds versus vehicle).
Statistical analyses. Data were analyzed by comparing test compound-treated groups with the vehicle control group using the Kruskal-Wallis test followed by post-hoc Mann-Whitney U tests. Data comparing the reference compound with the vehicle were analyzed using the Mann-Whitney U test. A p value<0.05 was considered significant.

[2] = target: human NR1/NR2B (Homo sapiens (Human), UniProt Q05586+Q13224); assay: NR2B antagonist activity: calcium influx (Fluo-4) assay in HEK293 cells; format: cell-based
Protocol: Activation of the NR2A or NR2B subtype of NMDA receptor with glutamate as an agonist and glycine co-agonist on these cells results in calcium influx, which can be monitored with fluorescent indicator Fluo-4.
For experiments, the cells were seeded onto poly-D-lysine-coated 96-well black plates with clear bottom (Corning) at a density of ˜50,000 cells/well. After overnight culture, the growth medium was removed from the wells and the cells were incubated at 37° C. for 60 minutes in Hanks buffer containing 4 μM fluo-4-AM (Invitrogen) and 0.1% bovine serum albumin (BSA). After dye-loading, the cells were washed three times with Hanks buffer and incubated for 10 minutes at room temperature with various concentrations of test compounds prepared in Hanks buffer with 0.1% BSA. The cell plates were placed onto an FDSS Cell fluorescence reader (Hamamatsu). After 20 seconds of reading background fluorescence, agonist glutamate at final 100 µM and co-agonist glycine at final 50 μM were added to the cells to activate the receptor, and the resulting fluorescence changes were recorded and quantified. Based on the changes in fluorescence intensity, the pharmacological effect of test compounds was analyzed and the IC50 values derived from a non-linear least squares fitting of the concentration-dependent response to a standard logistic equation using Prism (Graphpad Software, Inc.): Amplitude=Max Amplitude/(1+(IC50/[antagonist])^n).

[3] = target: native rat brain NR2B receptors (Rattus norvegicus (Rat), UniProt P35439+Q00960); assay: NR2B radioligand binding assay in rat brain using [3H] (E)-N1-(2-methoxybenzyl)-cinnamidine; details: rat brain NR2B receptors; mean of replicates; read-out: Arithmetic Mean Ki
Protocol: This example describes an NR2B receptor binding assay in rat brain using [^3H] […] The binding assay method was adapted from a previously described cellular human NR1a/NR2B cloned receptor assay (Kiss et al. Neurochem. Internatl. 2005, 46:453-464) to rat brain tissue. This assay serves as a selective measure of NR2B receptor binding activity in native rat brain receptors. Briefly, the brains of male Wistar rats were homogenized (Polytron) before centrifugation at 40,000×g for 15 minutes at 4° C. After 2 washes, the final pellet was homogenized and stored at −80° C. The protein concentration was determined by Bradford assay. [^3H] […] Non-specific binding was assessed in the presence of excess (10 μM) (E)-N1-(2-nethoxybenzyl)-cinnamidine.
Test compounds were solubilized at 10 mM in DMSO. Then the dilutions were performed with a constant solvent concentration (1% DMSO) in the assay. After incubation for 4.5 hours at room temperature, the assays were filtered on GF/3 filters pretreated with 0.3% (v/v) polyethylenimine (PEI) with a Packard system. The experiment was performed in duplicate (n=2).

[4] = system: wild type mice (male C57Bl/6); assay: Novelty Phobia Test in wild type mice; format: in vivo, mouse
Protocol: Animals. Male C57Bl/6 mice (18-30 g body weight; 6-8 weeks of age) were obtained from Slaccas (Shanghai, China) and allowed to acclimate to the animal facility for 7 days. Mice were group housed in plastic cages (no more than 4 animals per cage) on wood shavings with nesting material. All animals had free access to food (M01-F, Slaccas) and water. The animal facility was maintained under artificial lighting between 7:00 AM and 7:00 PM in a controlled ambient temperature of 22-24° C. and relative humidity between 50-60%.
Compound formulation. The test compounds were prepared in a vehicle of DMSO and HP-β-CD, and administered IP or PO. The test compounds or vehicle were administered at various times (10-20 minutes) before the behavioral test described below. Dosing volume was 10 mL/kg.
Testing procedure. The behavioral testing apparatus was a rectangular black Plexiglas, 2-chambered box, with no top or bottom (50 cm long, 26 cm wide and 15 cm tall) and allowed for the simultaneous testing of 2 mice. The box was placed on a laboratory bench. The chambers of the testing box were cleaned and fresh paper chip bedding was added between tests. Mice were brought to the experiment room in their home cages on the day of testing. Behavioral tests were conducted between 10:00 AM and 1:00 PM in dim light. After drug administration, a mouse was placed into a test chamber and allowed to explore for 10 minutes. After this habituation period, a novel object (e.g., a toy ball of 3 cm in diameter with spikes) was introduced to the center of the chamber for 5 minutes. For the entire 15-minute test period, video was recorded for offline analysis with Any-maze Video Tracking software (Stoelting Co., Wood Dale, Ill.). The total distance traveled during the entire 15 minutes and the number of bouts that each mouse touched the novel object during the last 5 minutes were measured.
Statistical analyses. Data are presented as means and SEMs. Data were analyzed using one-way analysis of variance (ANOVA; Prism, GraphPad Software Inc., San Diego, Calif.), followed by the post-hoc Dunnett's test to compare test compound-treated groups with the vehicle control. A p value<0.05 was considered significant.

[5] = target: hERG channel (Homo sapiens (Human), UniProt Q12809); assay: hERG channel inhibition, whole cell patch clamp in HEK293 cells; format: cell-based
Protocol: The assay was performed on hERG channel stably expressed in HEK293 cells. The cells were cultured at 37° C. in a humidified CO2 incubator in the growth medium consisting of DMEM, 10% fetal bovine serum and antibiotics. Prior to the assay, the cells were seeded onto a 12-mm PDL-coated glass coverslip and cultured in a 35-mm Petri dish. After 16 to 40 hours culture, the coverslip was transferred into the chamber of OctaFlow perfusion system (ALA Instrument) and under a constant flow of extracellular solution (140 mM NaCl, 4 mM KCl, 1 mM MgCl2, 2 mM CaCl2, 10 mM HEPES, 10 mM D-glucose, pH 7.35, osmolarity 290). Whole cell patch clamping was performed with a glass micropipette filled with intracellular solution (120 mM KCl, 1.75 mM MgCl2, 5.4 mM CaCl2, 10 mM HEPES, 10 mM EGTA, and 4 mM ATP-K2, pH 7.2, osmolarity 310). Giga-seal was maintained during the test. The voltage control and current measurement were carried out using Axon amplifier 700B, Digidata 1440A and CLAMPEX10 software (Molecular Devices). Whole-cell hERG currents were recorded following the Petroski protocol: the cell was held at −80 mV, and the voltage step jumped from −80 to 30 mV and stay for 2 seconds with a 20-millisecond prepulse at −40 mV. After depolarization, the voltage was decreased to −40 mV and stay for 2 seconds, and returned back to −80 mV. Test compound was applied by quartz capillary tubes tip (200 m inner diameter), and the flow rate was controlled at 2-3 mL/min with OctaFlow perfusion system. Different concentrations of the compound were applied to the cells for 5 minutes and the hERG current was measured three times before, during and after compound treatment. The data were analyzed using Clampfit 10 software (Molecular Devices) to generate IC50 values.

[6] = target: CYP2D6 (Homo sapiens (Human), UniProt P10635); assay: CYP P450 enzyme inhibition in pooled human liver microsomes (dextromethorphan probe); format: in vitro ADME; details: Table 1.4B
Protocol: Test compound concentration-dependent response studies were performed in triplicate.

[7] = Table 1.1A, read-out: NR2B IC50
[8] = Table 1.3A, read-out: hNR2B IC50
[9] = Table 1.4A, read-out: NR2B IC50

native rat brain NR2B receptors, sequence (Q00960 27-1482, other chains not shown): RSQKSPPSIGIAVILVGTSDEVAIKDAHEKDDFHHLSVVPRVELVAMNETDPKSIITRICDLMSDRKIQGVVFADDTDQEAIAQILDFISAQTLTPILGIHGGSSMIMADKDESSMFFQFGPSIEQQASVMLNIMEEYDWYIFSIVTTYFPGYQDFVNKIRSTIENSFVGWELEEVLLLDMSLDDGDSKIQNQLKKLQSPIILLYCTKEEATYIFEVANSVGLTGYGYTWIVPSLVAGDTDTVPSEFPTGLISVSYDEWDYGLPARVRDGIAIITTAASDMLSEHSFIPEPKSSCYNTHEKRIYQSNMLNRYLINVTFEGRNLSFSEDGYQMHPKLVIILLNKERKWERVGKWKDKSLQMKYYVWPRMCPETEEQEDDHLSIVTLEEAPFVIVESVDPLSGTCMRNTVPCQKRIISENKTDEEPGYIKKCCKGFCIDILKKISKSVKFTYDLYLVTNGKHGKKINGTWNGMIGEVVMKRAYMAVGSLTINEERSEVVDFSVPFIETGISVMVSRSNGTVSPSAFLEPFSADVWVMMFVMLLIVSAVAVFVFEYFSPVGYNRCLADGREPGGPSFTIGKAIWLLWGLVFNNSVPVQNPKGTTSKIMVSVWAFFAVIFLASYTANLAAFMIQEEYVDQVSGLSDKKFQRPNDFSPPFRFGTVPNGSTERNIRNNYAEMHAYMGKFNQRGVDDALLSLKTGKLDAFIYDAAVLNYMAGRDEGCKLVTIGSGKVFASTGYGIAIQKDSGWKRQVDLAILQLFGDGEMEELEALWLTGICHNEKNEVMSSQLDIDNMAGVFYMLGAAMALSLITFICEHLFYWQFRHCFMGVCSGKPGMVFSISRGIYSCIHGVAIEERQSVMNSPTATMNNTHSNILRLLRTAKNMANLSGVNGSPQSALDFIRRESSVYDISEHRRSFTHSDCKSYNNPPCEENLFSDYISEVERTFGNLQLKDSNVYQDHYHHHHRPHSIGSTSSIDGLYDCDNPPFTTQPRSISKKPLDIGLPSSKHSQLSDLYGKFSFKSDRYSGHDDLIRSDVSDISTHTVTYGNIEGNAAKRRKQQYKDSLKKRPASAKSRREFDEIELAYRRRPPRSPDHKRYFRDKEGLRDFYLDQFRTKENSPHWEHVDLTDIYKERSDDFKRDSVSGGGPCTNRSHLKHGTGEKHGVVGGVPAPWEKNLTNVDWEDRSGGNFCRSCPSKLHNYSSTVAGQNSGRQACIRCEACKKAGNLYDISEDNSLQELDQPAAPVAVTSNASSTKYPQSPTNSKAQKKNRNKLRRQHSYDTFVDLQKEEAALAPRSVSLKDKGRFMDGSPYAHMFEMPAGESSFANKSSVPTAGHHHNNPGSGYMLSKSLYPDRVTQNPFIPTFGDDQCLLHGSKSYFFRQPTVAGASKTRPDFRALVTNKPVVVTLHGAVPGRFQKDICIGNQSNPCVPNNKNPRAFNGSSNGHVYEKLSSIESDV
human NR1/NR2B, sequence (Q13224 27-1484, other chains not shown): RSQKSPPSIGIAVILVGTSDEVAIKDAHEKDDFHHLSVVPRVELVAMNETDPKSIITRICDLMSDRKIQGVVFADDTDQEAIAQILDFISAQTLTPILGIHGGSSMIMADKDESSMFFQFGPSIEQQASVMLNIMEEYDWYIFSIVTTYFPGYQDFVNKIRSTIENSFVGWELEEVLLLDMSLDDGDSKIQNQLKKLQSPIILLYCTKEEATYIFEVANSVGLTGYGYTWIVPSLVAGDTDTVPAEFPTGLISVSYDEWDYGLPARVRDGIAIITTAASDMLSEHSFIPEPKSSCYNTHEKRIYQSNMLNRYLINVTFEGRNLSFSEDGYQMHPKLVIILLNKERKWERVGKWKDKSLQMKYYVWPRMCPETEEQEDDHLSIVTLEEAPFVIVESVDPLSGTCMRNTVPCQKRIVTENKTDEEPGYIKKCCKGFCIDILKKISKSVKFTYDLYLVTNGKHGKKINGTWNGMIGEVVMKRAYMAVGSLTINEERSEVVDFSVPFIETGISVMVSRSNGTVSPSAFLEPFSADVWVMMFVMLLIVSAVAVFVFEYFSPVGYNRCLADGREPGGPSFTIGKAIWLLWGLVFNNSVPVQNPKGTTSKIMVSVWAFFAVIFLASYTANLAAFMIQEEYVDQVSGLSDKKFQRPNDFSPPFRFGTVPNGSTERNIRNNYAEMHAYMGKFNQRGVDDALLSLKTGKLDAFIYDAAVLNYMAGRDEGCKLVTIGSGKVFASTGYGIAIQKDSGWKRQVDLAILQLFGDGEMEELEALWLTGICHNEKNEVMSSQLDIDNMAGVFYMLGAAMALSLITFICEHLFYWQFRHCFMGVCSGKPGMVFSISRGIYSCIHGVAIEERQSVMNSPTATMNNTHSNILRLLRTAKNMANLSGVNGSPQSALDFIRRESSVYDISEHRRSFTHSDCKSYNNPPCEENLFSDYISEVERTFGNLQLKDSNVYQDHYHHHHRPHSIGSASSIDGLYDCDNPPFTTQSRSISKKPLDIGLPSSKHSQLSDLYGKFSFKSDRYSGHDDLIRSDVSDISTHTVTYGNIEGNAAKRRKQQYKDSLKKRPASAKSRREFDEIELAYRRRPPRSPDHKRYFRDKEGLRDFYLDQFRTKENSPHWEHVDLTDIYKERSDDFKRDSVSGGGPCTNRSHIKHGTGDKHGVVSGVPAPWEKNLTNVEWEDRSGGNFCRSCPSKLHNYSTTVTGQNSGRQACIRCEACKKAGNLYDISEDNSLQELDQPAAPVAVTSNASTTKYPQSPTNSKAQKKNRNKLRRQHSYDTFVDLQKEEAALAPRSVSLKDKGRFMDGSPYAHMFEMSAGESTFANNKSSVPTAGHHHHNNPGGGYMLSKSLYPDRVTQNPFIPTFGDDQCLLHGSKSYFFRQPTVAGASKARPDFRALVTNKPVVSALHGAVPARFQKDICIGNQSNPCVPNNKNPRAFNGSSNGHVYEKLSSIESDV
hERG channel, sequence (Q12809 whole entry): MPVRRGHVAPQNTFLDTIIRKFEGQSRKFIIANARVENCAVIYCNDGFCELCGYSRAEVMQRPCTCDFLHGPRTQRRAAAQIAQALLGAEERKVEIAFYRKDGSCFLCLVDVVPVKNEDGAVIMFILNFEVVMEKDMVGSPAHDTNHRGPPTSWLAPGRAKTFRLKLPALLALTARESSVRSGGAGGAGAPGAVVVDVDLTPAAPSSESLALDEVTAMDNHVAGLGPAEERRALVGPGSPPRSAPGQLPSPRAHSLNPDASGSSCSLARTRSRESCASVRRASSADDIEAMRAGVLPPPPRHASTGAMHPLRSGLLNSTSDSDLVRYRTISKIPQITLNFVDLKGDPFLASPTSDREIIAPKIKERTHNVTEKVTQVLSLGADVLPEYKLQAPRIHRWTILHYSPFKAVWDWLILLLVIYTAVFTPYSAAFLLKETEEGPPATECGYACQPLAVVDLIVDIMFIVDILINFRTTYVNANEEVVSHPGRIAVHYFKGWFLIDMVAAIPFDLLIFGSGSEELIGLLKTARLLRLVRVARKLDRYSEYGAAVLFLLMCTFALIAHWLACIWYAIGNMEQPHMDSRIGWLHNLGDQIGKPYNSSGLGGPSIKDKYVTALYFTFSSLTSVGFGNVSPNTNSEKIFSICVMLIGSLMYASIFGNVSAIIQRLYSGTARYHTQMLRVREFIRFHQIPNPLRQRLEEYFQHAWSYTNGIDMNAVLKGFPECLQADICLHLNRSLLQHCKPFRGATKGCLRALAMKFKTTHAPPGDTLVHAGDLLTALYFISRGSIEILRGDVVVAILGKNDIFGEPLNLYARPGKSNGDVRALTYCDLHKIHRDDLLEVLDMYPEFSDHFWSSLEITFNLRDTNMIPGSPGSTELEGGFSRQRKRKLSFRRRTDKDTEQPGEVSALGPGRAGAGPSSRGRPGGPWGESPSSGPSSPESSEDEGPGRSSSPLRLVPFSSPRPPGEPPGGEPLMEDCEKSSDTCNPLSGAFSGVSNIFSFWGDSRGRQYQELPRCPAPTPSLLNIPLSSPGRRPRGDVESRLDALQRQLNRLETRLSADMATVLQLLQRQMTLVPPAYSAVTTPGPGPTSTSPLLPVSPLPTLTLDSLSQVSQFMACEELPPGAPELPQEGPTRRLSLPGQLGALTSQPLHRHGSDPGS
CYP2D6, sequence (P10635 whole entry): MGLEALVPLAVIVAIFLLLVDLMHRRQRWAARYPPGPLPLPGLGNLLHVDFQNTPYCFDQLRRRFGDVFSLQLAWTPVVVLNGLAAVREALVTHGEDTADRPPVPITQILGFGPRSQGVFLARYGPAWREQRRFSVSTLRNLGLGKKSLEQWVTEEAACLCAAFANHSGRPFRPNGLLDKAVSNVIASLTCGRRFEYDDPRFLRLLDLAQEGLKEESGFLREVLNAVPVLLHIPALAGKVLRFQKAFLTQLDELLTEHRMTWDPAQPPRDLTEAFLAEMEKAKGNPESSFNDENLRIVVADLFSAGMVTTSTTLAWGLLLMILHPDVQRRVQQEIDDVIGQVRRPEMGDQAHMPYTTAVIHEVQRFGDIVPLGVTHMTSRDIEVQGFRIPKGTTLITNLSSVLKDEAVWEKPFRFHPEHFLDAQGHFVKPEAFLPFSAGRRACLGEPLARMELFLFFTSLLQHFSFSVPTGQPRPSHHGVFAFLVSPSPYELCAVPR

FC(F)(F)c1ccc(C(F)(F)CN2CCC(Nc3ncnc4[nH]ccc34)CC2)nc1 [C-5^A′]
change in vivo at 3 mg/kg [1]: 2%
change in vivo at 10 mg/kg [1]: -50%
change in vivo at 30 mg/kg ([1]; 30 mg/kg): -98%
IC50 [2, 7]: 30 nM
IC50 [2, 8]: 30 nM
IC50 [2, 9]: 30 nM
Ki [3]: 15.7 nM
bouts of nose touching of the novel object, efficacy ([4]; IP (C-11 also PO)): not efficacious
change in vivo at 10 mg/kg ([4]; Mus musculus, ip, 10 min, IP, 10 mg/kg, pre-test time 10 min, read-out: Percent Change in Novel Object Number of Nose Touches relative to vehicle control): 70.8%
change in vivo at 30 mg/kg ([4]; Mus musculus, ip, 10 min, IP, pre-test time 10 min, read-out: Percent Change in Novel Object Number of Nose Touches relative to vehicle control): 42.4%
change in vivo at 60 mg/kg ([4]; Mus musculus, ip, 10 min, IP, 60 mg/kg, pre-test time 10 min, read-out: Percent Change in Novel Object Number of Nose Touches relative to vehicle control): -36.9%

FC(F)(F)c1ccc(C(F)(F)CN2CCC(Nc3ncnc4[nH]ccc34)CC2)cn1 [C-127^A′]
change in vivo at 1 mg/kg [1]: 15%
change in vivo at 3 mg/kg [1]: -27%
change in vivo at 10 mg/kg [1]: -98%
IC50 [2, 7]: 45 nM
IC50 [2, 8]: 45 nM
IC50 [2, 9]: 45 nM
Ki [3]: 31.6 nM
change in vivo at 20 mg/kg ([4]; Mus musculus, ip, 0.25 h, IP, 20 mg/kg, pre-test time 15 min, read-out: Percent Change in Novel Object Number of Nose Touches relative to vehicle control): 120%
change in vivo at 30 mg/kg ([4]; Mus musculus, ip, 0.25 h, IP, pre-test time 15 min, read-out: Percent Change in Novel Object Number of Nose Touches relative to vehicle control): 160%
pattern of the dose-response function for bouts of nose touching ([4]; mouse, in vivo): dose-dependent increases

Cc1ccc(COC(=O)N2CC[C@H](CNc3ncc(C)cn3)C(F)(F)C2)cc1 [E1-22.26^B′, (R)-4-methylbenzyl 3,3-difluoro-4-(((5-methylpyrimidin-2-yl)amino)methyl)piperidine-1-carboxylate mesylate]
change in vivo at 1 mg/kg [1]: -12%
change in vivo at 3 mg/kg [1]: -23%
change in vivo at 10 mg/kg [1]: -96%
Ki [3]: 3.4 nM

Cc1ccc(COC(=O)N2CC[C@H](CNc3ncc(C(F)(F)F)cn3)C(F)(F)C2)cc1 [E1-22.29^B′, (R)-4-methylbenzyl 3,3-difluoro-4-(((5-(trifluoromethyl)pyrimidin-2-yl)amino)methyl)piperidine-1-carboxylate methanesulfonate]
Ki [3]: > 1000 nM

Cc1ccc(COC(=O)N2CC[C@H](CNc3ccccn3)C(F)(F)C2)cc1 [E1-23.2^B′, (R)-4-methylbenzyl 3,3-difluoro-4-((pyridin-2-ylamino)methyl)piperidine-1-carboxylate]
IC50 ([5]; Table 1.3B): 5600 nM
IC50 [6]: 18000 nM

O=C(OCc1ccc(F)cc1)N1CC[C@H](CNc2ccccn2)C(F)(F)C1 [E1-23.4^B′, (R)-4-fluorobenzyl 3,3-difluoro-4-((pyridin-2-ylamino)methyl)piperidine-1-carboxylate]
Ki [3]: 7.8 nM

Cc1ccc(COC(=O)N2CC[C@H](CNc3cccc(C)n3)C(F)(F)C2)cc1 [E1-23.32^B′, (+)-(R)-4-methylbenzyl 3,3-difluoro-4-(((6-methylpyridin-2-yl)amino)methyl)piperidine-1-carboxylate]
Ki [3]: 31 nM

O=C(OCc1ccc(F)cc1)N1CC[C@H](CNc2cccnn2)C(F)(F)C1 [E1-24.4^B′, (R)-4-fluorobenzyl 3,3-difluoro-4-((pyridazin-3-ylamino)methyl)piperidine-1-carboxylate methanesulfonate]
Ki [3]: 10 nM

O=C(OCc1ccc(C(F)F)cc1)N1CC[C@H](CNc2cccnn2)C(F)(F)C1 [E1-24.6^B′, (R)-4-(difluoromethyl)benzyl 3,3-difluoro-4-((pyridazin-3-ylamino)methyl)piperidine-1-carboxylate hydrochloride]
Ki [3]: 4.7 nM

Cc1ccc(COC(=O)N2CC[C@H](CNc3ccncn3)C(F)(F)C2)cc1 [E1-37.2^B′, (R)-4-methylbenzyl 3,3-difluoro-4-((pyrimidin-4-ylamino)methyl)piperidine-1-carboxylate methanesulfonate]
IC50 [6]: 200 nM

O=C(OCc1ccc(F)cc1)N1CC[C@H](CNc2ccncn2)C(F)(F)C1 [E1-37.4^B′, (R)-4-fluorobenzyl 3,3-difluoro-4-((pyrimidin-4-ylamino)methyl)piperidine-1-carboxylate mesylate]
Ki [3]: 4.7 nM

O=C(OCc1ccc(C(F)F)cc1)N1CC[C@H](CNc2ccncn2)C(F)(F)C1 [E1-37.6^B′, (R)-4-(difluoromethyl)benzyl 3,3-difluoro-4-((pyrimidin-4-ylamino)methyl)piperidine-1-carboxylate hydrochloride]
Ki [3]: 3.9 nM

O=C(OCc1ccc(F)cc1)N1CC[C@H](CNc2ccncc2F)C(F)(F)C1 [E1-38.10^B′, (R)-4-fluorobenzyl 3,3-difluoro-4-(((3-fluoropyridin-4-yl)amino)methyl)piperidine-1-carboxylate mesylate]
Ki [3]: 3.8 nM

Cc1ccc(COC(=O)N2CC[C@@H](CNc3nccn4cnnc34)C(F)(F)C2)cc1 [E2-1.2^B′]
inhibition at 5 min, 10 µM ([5]; human, HEK293 cells stably expressing hERG channel, pH 7.35, 10 μM): 22%
IC50 ([2]; Table 1.1B, read-out: NR2B IC50): 156 nM
IC50 ([2]; Table 1.3B, read-out: NR2B IC50): 156 nM
IC50 ([2]; Table 1.4B, read-out: NR2B IC50): 156 nM
Ki [3]: 84.2 nM
